US10800786B2, “Bicyclic compounds as ATX inhibitors” (Hoffmann-La Roche Inc., priority 2015, dated 2020)

Target: ATX (human His-tagged) (Homo sapiens (Human), UniProt Q13822)
Test: Human ATX enzyme inhibition assay (fluorescence quenching, MR121 substrate)
Format: biochemical
Settings: not given
Experimental: Human Atx Enzyme Inhibition Assay
Assay working solutions were made as follows:
Assay buffer (50 mM Tris-HCl, 140 mM NaCl, 5 mM KCl, 1 mM CaCl2, 1 mM MgCl2, 0.01% Triton-X-100, pH 8.0;
MR121 substrate solution: MR121 substrate stock solution (800 μM MR121 substrate in DMSO), diluted to 2-5× final concentration in assay buffer.
10 μL of MR121 substrate solution was added ([…] final concentration), mixed 30 times and then incubated for 15 minutes at 30° C.

IC50 | Compound
10 nM | O=C(c1cc(OCC2CCOCC2)nc(C2CC2)c1)N1CC2=C(CC(C(=O)N3CCc4[nH]nnc4C3)C2)C1 [Example 4.01, [2-cyclopropyl-6-(oxan-4-ylmethoxy)pyridin-4-yl]-[5-(1,4,6,7-tetrahydrotriazolo[4,5-c]pyridine-5-carbonyl)-3,4,5,6-tetrahydro-1H-cyclopenta[c]pyrrol-2-yl]methanone]

Same assay, conditions: 30 nM ATX, MR121 substrate, 30° C., pH 8.0; read-out: ATX IC50

IC50 | Compound
7 nM | CC(C)(C)C(=O)Nc1cc(C(F)(F)F)cnc1COC(=O)N1CC2=C(C1)CN(C(=O)[C@@H]1CCc3[nH]nnc3C1)C2 [Example 1.00, [3-(2,2-Dimethylpropanoylamino)-5-(trifluoromethyl)pyridin-2-yl]methyl 2-[(5R)-4,5,6,7-tetrahydro-1H-benzotriazole-5-carbonyl]-1,3,4,6-tetrahydropyrrolo[3,4-c]pyrrole-5-carboxylate]
8 nM | Cn1c(=O)[nH]c2ccc(C(=O)N3CC4=C(CN(C(=O)c5cc(OCC6CCOCC6)nc(C6CC6)c5)C4)C3)cc21 [Example 1.01, 6-(5-(2-cyclopropyl-6-((tetrahydro-2H-pyran-4-yl)methoxy)isonicotinoyl)-1,2,3,4,5,6-hexahydropyrrolo[3,4-c]pyrrole-2-carbonyl)-1-methyl-1H-benzo[d]imidazol-2(3H)-one]
5 nM | O=C(c1cc(OCC2CCOCC2)nc(C2CC2)c1)N1CC2=C(C1)CN(C(=O)[C@@H]1CCc3[nH]nnc3C1)C2 [Example 1.02, [2-cyclopropyl-6-(oxan-4-ylmethoxy)pyridin-4-yl]-[5-[(5R)-4,5,6,7-tetrahydro-1H-benzotriazole-5-carbonyl]-1,3,4,6-tetrahydropyrrolo[3,4-c]pyrrol-2-yl]methanone]
5 nM | O=C(c1cc(OCC2CCOCC2)nc(C2CC2)c1)N1CC2=C(C1)CN(C(=O)c1ccc3[nH]nnc3c1)C2 [Example 1.03]
8 nM | CC(C)(C)C(=O)Nc1cc(C(F)(F)F)cnc1COC(=O)N1CC2=C(C1)CN(C(=O)c1ccc3[nH]nnc3c1)C2 [Example 1.04, [3-(2,2-dimethylpropanoylamino)-5-(trifluoromethyl)pyridin-2-yl]methyl 2-(1H-benzotriazole-5-carbonyl)-1,3,4,6-tetrahydropyrrolo[3,4-c]pyrrole-5-carboxylate]
3 nM | O=C(OCc1ccc(OC(F)(F)F)cc1)N1CC2=C(C1)CN(C(=O)c1ccc3[nH]nnc3c1)C2 [Example 1.05, 4-(trifluoromethoxy)benzyl 5-(1H-benzo[d][1,2,3]triazole-5-carbonyl)-3,4,5,6-tetrahydropyrrolo[3,4-c]pyrrole-2(1H)-carboxylate]
11 nM | Cc1nnn(Cc2cc(C(F)(F)F)ccc2CCC(=O)N2CC3=C(C2)CN(C(=O)c2ccc4[nH]nnc4c2)C3)n1 [Example 1.06, 1-[5-(1H-benzotriazole-5-carbonyl)-1,3,4,6-tetrahydropyrrolo[3,4-c]pyrrol-2-yl]-3-[2-[(5-methyltetrazol-2-yl)methyl]-4-(trifluoromethyl)phenyl]propan-1-one]
17 nM | CC(C)(C)C(=O)Nc1cc(C(F)(F)F)cnc1COC(=O)N1CCC2=C(CCN(C(=O)c3ccc4[nH]nnc4c3)C2)C1 [Example 1.07, [3-(2,2-dimethylpropanoylamino)-5-(trifluoromethyl)pyridin-2-yl]methyl 6-(1H-benzotriazole-5-carbonyl)-1,3,4,5,7,8-hexahydro-2,6-naphthyridine-2-carboxylate]
7 nM | CC(C)(C)C(=O)Nc1cc(Cl)c(Cl)nc1COC(=O)N1CC2=C(C1)CN(C(=O)c1ccc3[nH]nnc3c1)C2 [Example 1.08, [5,6-dichloro-3-(2,2-dimethylpropanoylamino)pyridin-2-yl]methyl 2-(1H-benzotriazole-5-carbonyl)-1,3,4,6-tetrahydropyrrolo[3,4-c]pyrrole-5-carboxylate]
4 nM | O=C(c1cc(OCC2CCOCC2)nc(C2CC2)c1)N1CC2=C(C1)CN(C(=O)c1ccc3c(O)noc3c1)C2 [Example 1.09, [5-[2-cyclopropyl-6-(oxan-4-ylmethoxy)pyridine-4-carbonyl]-1,3,4,6-tetrahydropyrrolo[3,4-c]pyrrol-2-yl]-(3-hydroxy-1,2-benzoxazol-6-yl)methanone]
13 nM | O=C1NS(=O)(=O)c2cc(C(=O)N3CC4=C(CN(C(=O)c5cc(OCC6CCOCC6)nc(C6CC6)c5)C4)C3)ccc21 [Example 1.10, 6-[5-[2-cyclopropyl-6-(oxan-4-ylmethoxy)pyridine-4-carbonyl]-1,3,4,6-tetrahydropyrrolo[3,4-c]pyrrole-2-carbonyl]-1,1-dioxo-1,2-benzothiazol-3-one]
5 nM | CC(C)(C)C(=O)Nc1cc(C(F)(F)F)cnc1COC(=O)N1CC2=C(C1)CN(C(=O)N1CCc3[nH]nnc3C1)C2 [Example 2.00, [3-(2,2-Dimethylpropanoylamino)-5-(trifluoromethyl)pyridin-2-yl]methyl 2-(1,4,6,7-tetrahydrotriazolo[4,5-c]pyridine-5-carbonyl)-1,3,4,6-tetrahydropyrrolo[3,4-c]pyrrole-5-carboxylate]
6 nM | O=C(c1cc(OCC2CCOCC2)nc(C2CC2)c1)N1CC2=C(C1)CN(C(=O)N1CCc3[nH]nnc3C1)C2 [Example 2.02, [2-cyclopropyl-6-(oxan-4-ylmethoxy)pyridin-4-yl]-[5-(1,4,6,7-tetrahydrotriazolo[4,5-c]pyridine-5-carbonyl)-1,3,4,6-tetrahydropyrrolo[3,4-c]pyrrol-2-yl]methanone]
5.5 nM | NS(=O)(=O)C1CCN(C(=O)N2CC3=C(CN(C(=O)c4cc(OCC5CCOCC5)nc(C5CC5)c4)C3)C2)CC1 [Example 2.04, 1-[2-[2-cyclopropyl-6-(oxan-4-ylmethoxy)pyridine-4-carbonyl]-1,3,4,6-tetrahydropyrrolo[3,4-c]pyrrole-5-carbonyl]piperidine-4-sulfonamide]
10 nM | O=C(c1cc(OCC2CCOCC2)nc(C2CC2)c1)N1CC2=C(C1)CN(C(=O)N1CCc3c(cn[nH]c3=O)C1)C2 [Example 2.08, 6-[2-[2-cyclopropyl-6-(oxan-4-ylmethoxy)pyridine-4-carbonyl]-1,3,4,6-tetrahydropyrrolo[3,4-c]pyrrole-5-carbonyl]-2,5,7,8-tetrahydropyrido[3,4-d]pyridazin-1-one]
441 nM | O=C(c1cc(OCC2CCOCC2)nc(C2CC2)c1)N1CC2=C(C1)CN(C(=O)N1CCc3c(n[nH]c3O)C1)C2 [Example 2.12, [2-cyclopropyl-6-(oxan-4-ylmethoxy)pyridin-4-yl]-[5-(3-hydroxy-2,4,5,7-tetrahydropyrazolo[3,4-c]pyridine-6-carbonyl)-1,3,4,6-tetrahydropyrrolo[3,4-c]pyrrol-2-yl]methanone]
97 nM | O=C(c1cc(OCC2CCOCC2)nc(C2CC2)c1)N1CC2=C(C1)CN(C(=O)N1CCc3onc(O)c3C1)C2 [Example 2.13, [2-cyclopropyl-6-(oxan-4-ylmethoxy)pyridin-4-yl]-[5-(3-hydroxy-6,7-dihydro-4H-[1,2]oxazolo[4,5-c]pyridine-5-carbonyl)-1,3,4,6-tetrahydropyrrolo[3,4-c]pyrrol-2-yl]methanone]
122 nM | O=C1NC(=O)N2CCN(C(=O)N3CC4=C(CN(C(=O)c5cc(OCC6CCOCC6)nc(C6CC6)c5)C4)C3)CC12 (centres unmarked) [Example 2.14, 7-[2-[2-cyclopropyl-6-(oxan-4-ylmethoxy)pyridine-4-carbonyl]-1,3,4,6-tetrahydropyrrolo[3,4-c]pyrrole-5-carbonyl]-5,6,8,8a-tetrahydroimidazo[1,5-a]pyrazine-1,3-dione]
36 nM | O=C(OCc1c[nH]nn1)N1CC2=C(C1)CN(C(=O)c1cc(OCC3CCOCC3)nc(C3CC3)c1)C2 [Example 3.00, (1H-1,2,3-Triazol-4-yl)methyl 5-(2-cyclopropyl-6-((tetrahydro-2H-pyran-4-yl)methoxy)isonicotinoyl)-3,4,5,6-tetrahydropyrrolo[3,4-c]pyrrole-2(1H)-carboxylate]
11 nM | NS(=O)(=O)C1CCN(C(=O)C2CC3=C(C2)CN(C(=O)c2cc(OCC4CCOCC4)nc(C4CC4)c2)C3)CC1 [Example 4.00, 1-[2-[2-Cyclopropyl-6-(oxan-4-ylmethoxy)pyridine-4-carbonyl]-3,4,5,6-tetrahydro-1H-cyclopenta[c]pyrrole-5-carbonyl]piperidine-4-sulfonamide]
1 nM | O=C(c1cc(OCC2CCOCC2)nc(C2CC2)c1)N1CC2=C(CN(Cc3ccc4[nH]c(=O)oc4c3)C2)C1 [Example 5.00, 6-[[5-[2-Cyclopropyl-6-(oxan-4-ylmethoxy)pyridine-4-carbonyl]-1,3,4,6-tetrahydropyrrolo[3,4-c]pyrrol-2-yl]methyl]-3H-1,3-benzoxazol-2-one]
3 nM | NS(=O)(=O)C1(F)CCN(C(=O)N2CC3=C(CN(C(=O)c4cc(OCC5CCOCC5)nc(C5CC5)c4)C3)C2)CC1 [Example 6.00, 1-[2-[2-Cyclopropyl-6-(oxan-4-ylmethoxy)pyridine-4-carbonyl]-1,3,4,6-tetrahydropyrrolo[3,4-c]pyrrole-5-carbonyl]-4-fluoropiperidine-4-sulfonamide]
